This passage reports IC50 results from US10508077B2 (FORMA Therapeutics, Inc., priority 2015, dated 2019).

Some results are limits rather than exact numbers.

For the experiment, the target named is T1, Full length human recombinant HDAC8 protein (Homo sapiens, UniProt Q9BY41).
T1 construct: Full length human recombinant HDAC8 protein was expressed in baculoviral system; made in house
T1 sequence (Q9BY41 1-377): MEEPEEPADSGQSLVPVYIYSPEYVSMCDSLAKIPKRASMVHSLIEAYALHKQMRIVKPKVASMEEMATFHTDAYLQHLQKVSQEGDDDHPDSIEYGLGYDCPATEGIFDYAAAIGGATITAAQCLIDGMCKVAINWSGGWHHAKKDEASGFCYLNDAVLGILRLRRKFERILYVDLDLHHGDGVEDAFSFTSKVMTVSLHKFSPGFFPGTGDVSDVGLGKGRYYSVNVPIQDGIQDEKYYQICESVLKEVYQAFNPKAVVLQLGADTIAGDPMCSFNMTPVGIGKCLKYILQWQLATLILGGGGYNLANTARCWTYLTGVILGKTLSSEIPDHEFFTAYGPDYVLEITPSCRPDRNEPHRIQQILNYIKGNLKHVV
Nature of the experiment: In vitro histone deacetylase assay: enzymatic HDAC8 assay, electrophoretic mobility shift. Type of experiment: biochemical. Particulars: substrate RHKK(Ac)-NH2, 1 nM enzyme, compounds listed under IC50 range headings. The procedure:
The enzymatic HDAC8 assay was performed using electrophoretic mobility shift assay. Full length human recombinant HDAC8 protein was expressed in baculoviral system and purified by affinity chromatography. The enzymatic reactions were assembled in 384 well plates in a total volume of 25 μL in a reaction buffer composing: 100 mM HEPES, pH7.5, 25 mM KC, 0.1% bovine serum albumin, 0.01% Triton X-100, 1% DMSO (from compounds) 2 μM of the fluorescently labeled peptide substrate and enzyme. The enzyme was added at a final concentration of 1 nM. The peptide substrate RHKK(Ac)-NH2 was used. The compounds were tested at 12 concentrations spaced by 3× dilution intervals. Negative control samples (0%-inhibition in the absence of inhibitor) and positive control samples (100%-inhibition) were assembled in replicates of four in each assay plate. The reactions were incubated at 25° C. and quenched by the addition of 45 μL of termination buffer (100 mM HEPES, pH 7.5, 0.01% Triton X-100, 0.05% SDS).
The terminated assay plates were analyzed on LabChip® 3000 microfluidic electrophoresis instrument (Perkin Elmer/Caliper Life Sciences). The fluorescence intensity of the electrophoretically separated de-acetylated product and substrate peptide was measured. Activity in each sample was determined as the product to sum ratio (PSR): P/(S+P), where P is the peak height of the product peptide and S is the peak height of the substrate peptide. Percent inhibition (Pinh) is determined using the following equation: Pinh=(PSR0%−PSRinh)/(PSR0%−PSR100%)*100, where PSRinh is the product sum ratio in the presence of inhibitor, PSR0% is the average product sum ration in the absence of inhibitor and PSR 100% is the average product sum ratio in 100%-inhibition control samples. The IC50 values of inhibitors were determined by fitting the %-inhibition curves with 4 parameter dose-response model using XLfit 4 software. Ranges of IC50 values for compounds of the invention are disclosed in Table 26.
(In EMSA bound probe runs differently from free probe, usually more slowly.)

As for `CC(C)S(=O)(=O)N1CCN(c2ccccc2/C=C/C(=O)NO)CC1` [Example I-249, (E)-N-hydroxy-3-(2-(4-(isopropylsulfonyl)piper-azine-1-yl)phenyl)acrylamide], the IC50 (as a rule, the concentration at which inhibition is half-maximal) was below 1000 nM. With `O=C(/C=C/c1ccccc1C(=O)N1CCN(CCc2ccccc2)CC1)NO` [II-21, (E)-N-hydroxy-3-(2-(4-phenethylpiperazine-1-carbonyl)phenyl)acrylamide], the IC50 was below 1000 nM. Then `O=C(/C=C/c1ccccc1N1CCC(NS(=O)(=O)c2ccc(Cl)cc2)CC1)NO` [Example I-223, (E)-3-(2-(4-((4-chlorophenyl)sulfonamido)piperidin-1-yl)phenyl)-N-hydroxyacrylamide], with below 1000 nM. As for `O=C(/C=C/c1ccccc1NCc1ccc(-c2ccccc2)nc1)NO` [Example I-99, (E)-N-hydroxy-3-(2-(((6-phenylpyridin-3-yl)methyl)amino)phenyl)acrylamide], the IC50 was below 1000 nM. Then `CCc1ccc(NC(=O)c2ccccc2/C=C/C(=O)NO)cc1` [II-3, (E)-N-(4-ethylphenyl)-2-(3-(hydroxyamino)-3-oxoprop-1-en-1-yl)benzamide], with 1000 to 10000 nM. Turning to `CCSCC(=O)N1CCN(c2ccccc2/C=C/C(=O)NO)CC1` [Example I-197, (E)-3-(2-(4-(2-(ethylthio)acetyl)pipera-zin-1-yl)phenyl)-N-hydroxyacrylamide], the IC50 was below 1000 nM. With `Cn1ccnc1CN1CCN(c2ccccc2/C=C/C(=O)NO)CC1` [Example I-181, (E)-N-hydroxy-3-(2-(4-((1-methyl-1H-imidazol-2-yl)methyl)piperazin-1-yl)phenyl)acrylamide] the figure was below 1000 nM; with `Cn1ccnc1S(=O)(=O)NC1CCN(c2ccccc2C=CC(=O)NO)CC1` [Example I-230, (E)-N-hydroxy-3-(2-(4-((1-methyl-1H-imidazole)-2-sulfonamido)-piperidin-1-yl)phenyl)acrylamide], below 1000 nM; with `O=C(/C=C/c1ccccc1NC(=O)C(c1ccccc1)C1CCCC1)NO` (stereo not shown) [Example I-279, (E)-3-(2-(2-cyclopentyl-2-phenylacetamido)phenyl)-N-hydroxyacrylamide], below 1000 nM.

Regarding `O=C(/C=C/c1ccccc1N1CCC(NC(=O)c2cnn3c2OCCC3)CC1)NO` [Example I-145, (E)-N-(1-(2-(3-(hydroxyamino)-3-oxoprop-1-en-1-yl)phenyl)piperidin-4-yl)-6,7-dihydro-5H-pyrazolo[5,1-b][1,3]oxazine-3-carboxamide], the IC50 was below 1000 nM. For `O=C(/C=C/c1ccccc1NC(=O)C1(c2ccccc2)CC1)NO` [Example I-64, (E)-N-(2-(3-(hydroxyamino)-3-oxoprop-1-en-1-yl)phenyl)-1-phenylcyclopropane-1-carboxamide], the IC50 was below 1000 nM. As to `O=C(/C=C/c1ccccc1C(=O)N1CCCCC1)NO` [II-16, (E)-N-hydroxy-3-(2-(piperidine-1-carbonyl)phenyl)acrylamide], the IC50 is below 1000 nM.

With `COc1cc(CC(=O)NC2CCN(c3ccccc3/C=C/C(=O)NO)CC2)ccc1O` [Example I-139, (E)-N-hydroxy-3-(2-(4-(2-(4-hydroxy-3-methoxyphenyl)acetami-do)piperidin-1-yl)phenyl)acrylamide], the IC50 is below 1000 nM. As to `COCCn1c(Nc2ccccc2/C=C/C(=O)NO)nc2ccccc21` [Example I-3, (E)-N-hydroxy-3-(2-((1-(2-methoxyethyl)-1H-benzo[d]imidazol-2-yl)amino)phenyl)acrylamide], the IC50 is 1000 to 10000 nM.

`O=C(/C=C/c1ccccc1N1CCC(NS(=O)(=O)c2ccc(CNC(=O)c3ccccc3)s2)CC1)NO` [Example I-240, (E)-N-((5-(N-(1-(2-(3-(hydroxyamino)-3-oxoprop-1-en-1-yl)phenyl)piperidin-4-yl)sulfamoyl)thiophen-2-yl)methyl)benzamide]: the IC50 is below 1000 nM. For `Cc1noc(C)c1S(=O)(=O)N1CCN(c2ccccc2/C=C/C(=O)NO)CC1` [Example I-245, (E)-3-(2-(4-((3,5-dimethylisoxazol-4-yl)sulfonyl)piperazin-1-yl)phenyl)-N-hydroxyacrylamide], the IC50 was below 1000 nM.
